Data: patent publication US20230140798A1, “SYNTHETIC PEPTIDES DIRECTED AGAINST THE METABOTROPIC GLUTAMATE RECEPTOR 5” (Lactocore, Inc., priority 2020, published 2023)

Legend:
mGluR5 (GRM5) = test: HEK 293 cells mGluR5-luciferase reporter assay (β-arrestin2 recruitment); assay type: cell-based, human; conditions: 1 mM, 16-hours incubation
Excerpt: The methodology was previously described by Kroeze (Kroeze et al. (2015). PRESTO-Tango as an open-source resource for interrogation of the druggable human GPCRome. Nat. Struct. Mol. Biol. 22(5): 362) and the principle is illustrated in FIG. 19. Briefly, the cells of HEK293 cell line are transfected with 3 types of plasmids:
Plasmid 1: encodes fusion GRMS-tTA protein. The linker between GRMS and tTA is sensitive to TEV-protease (www.addgene.org/66390/).
Plasmid 2: encodes β-arrestin2/TEV-protease fusion protein (www.addgene.org/107245/).
Plasmid 3: luciferase tTA reporter (www.addgene.org/64127/).
Sufficient quantities of fusion proteins were produced during 24 hours after transfection. mGluR5 (GRM5) activation by a selective agonist CHPG (SEQ ID NO: 18) (1) leads to recruiting of β-arrestin2/TEV-protease fusion protein (2), that cleaves the linker between GRM5 and tTA (3). Released tTA transcription factor (4) binds with its consensus sites in tTA luciferase reporter plasmid (5) that results in activation of luciferase expression. The activity of luciferase can be used to estimate the activity of mGluR5, and application of negative allosteric modulators of mGluR5 should lead to a dose-dependent decrease in luciferase activity in this system (FIG. 19).
Sufficient quantities of the plasmids were produced using standard applications before the experiment. HEK293 cells were co-transfected with three plasmids using polyethylenimine (PEI, 408727, Sigma-Aldrich, USA) 24 hours prior to agonists application. Transfected cells were treated with agonists/antagonists and incubated overnight (16 hours). Antagonists were introduced 10 minutes prior to agonists. Luciferase test was performed using Promega™ Luciferase Assay Systems Kit (PR-E1500, Promega, USA) according to the manufacturer's protocol.
CHPG—orthosteric selective mGlu5 receptor agonist (HB0033, HelloBio, USA). […]

BALB/C mice [1] = test: Porsolt Forced Swim test (two-day modification), mice; assay type: in vivo
Method: (§1) After an adaptation period, the test substance was intraperitoneally injected into mice. Behavioral parameters were measured in 30 minutes after injection. No more than one test was performed per day. The tests were administered as follows: day 1—the Open field test, day 8—the Elevated plus maze test, days 15-16—the Porsolt Forced Swim (two-day modification) test.
As part of this modification, two tests were carried out within two days. The installation is a transparent cylinder, 30 cm high, 10 cm in diameter and filled with water (water temperature 21° C.-23° C.) to a mark at a height of 25 cm. On the first day, each animal was dropped into the cylinder for 10 minutes. Behavioral parameters were not recorded. The animals are dropped into the cylinder for ten minutes again on the second day. The duration of active (vigorous movements with all paws) and passive (weak strokes with hind legs) swimming, as well as immobility (immobilization) (Porsolt et al. (1977). Behavioral despair in mice: a primary screening test for antidepressants. Arch Int Pharmacodyn Ther, 229(2), 327-336) are recorded. After each test the mice are placed in a heated cage until dry. The behavior indicators in this test are processed using the Real Timer Program developed by NPK “OpenScience” LLC, Russia. The sequence of events and their duration were recorded as well as basic statistical data processing was conducted.

zebrafish (Danio rerio) [2] = test: Novel Tank (NT) test; assay type: in vivo
Method: (§2) The tested substances were injected into the zebrafish intraperitoneally using an insulin syringe (0.5 ml, 30 g) 10 minutes before the test (15 min before for ketamine only, according to the literature data). The saline solution (0.9% NaCl) was used as a solvent. Anesthesia and immobilization of the animals were achieved by placing them in water at a temperature of 10° C. Control group fish received intraperitoneal injections of an equivalent volume of solvent, also after going through a pre-cooling procedure.
A base, back, and side walls of the aquarium were made of matte black plastic; the front panel (shorter wall) was made of transparent Plexiglas.
(§3) The Novel Tank (NT) test was performed as previously described (Maximino et al. (2013). Behavioral and neurochemical changes in the zebrafish leopard strain. G2B. 12(5): 576-582). A video recording (background shooting) was started 20-30 seconds before the zebrafish were placed in the test aquarium. The experimental zebrafish was placed in the tank using a net. The recording was being conducted for 5 minutes. The test was carried out using EthoVision XT software package (Noldus, Wageningen, Netherlands). The software registered the distance covered by the animal, its speed, the number of visits to the three conventional zones of the aquarium: “bottom,” “center,” and […] (lower, middle, and upper thirds of the aquarium, respectively), the time spent in these zones, and the latency of a visit to the middle and to the surface of the aquarium.

zebrafish (Danio rerio) [3] = test: Light/Dark Box (LDB) test; assay type: in vivo
Method: as §2
The setup for the Light/Dark preference test consisted of three main parts: a launch compartment, a light compartment made of white plastic, and a dark compartment made of black plastic. The bright lighting in these tests was provided by a lamp on a stand (LED lamp PL, 11 W, light flux≈600 Lm, about 500 Lx directly above the water surface), which was attached to the upper part of the aquarium.
(§4) The light/dark box (LDB) test was performed as previously described (Maximino et al. (2011). Pharmacological analysis of zebrafish (Danio rerio) scototaxis. Prog. Neuro-Psychopharmacol. Biol. Psychiatry. 35(2): 624-631). The zebrafish was placed in a light compartment of an LDB using a net, the camera was switched on simultaneously, and the behavior of the zebrafish was recorded for 5 minutes. The video was processed using RealTimer (OpenScience). During the processing of records, the residence time and the number of visits to the light and dark compartments of the test setup were recorded, as well as the latent period of visiting both compartments.

zebrafish (Danio rerio) [4] = test: Overall behavioral effect in zebrafish (NT and LDB tests); assay type: in vivo
Method: as §2, §3, §4

BALB/C mice [5] = test: Open Field test, mice; assay type: in vivo
Excerpt: Eighty male BALB/C mice were used as subjects in this example. Body weight of each specimen at the beginning of the experiment was between about 18 grams and about 20 grams. All animals were free from species-specific pathogens (specific pathogen free (SPF) status according to the Federation of European Laboratory Animal Science Associations (FELASA) list, 2014). The animals were kept in conditions of free access to water and food. The room was air-conditioned (exchange rate not less than 15 r/h) with a 12 h:12 h light-dark cycle (lights on at 09:00 am), air temperature 20-24°±2° C. (possible fluctuations of the limits no more than 2° C. per day), 30-70% humidity. For the study, the mice were separated into six different groups and the tested substances were administered to the groups as shown in Table 1. Drugs were daily prepared in fresh saline, according to the dosage. For intranasal administration (i.n.), a volume of 20 μl was used, for intraperitoneal (i.p.)—200 μl.
as §1
The test is an arena with a diameter of 63 cm, illuminated by bright light (500 Lx). Recorded parameters: total distance traveled (in cm), time spent moving (at a speed of more than five cm/s), time spent immobile (at a speed of less than 0.2 cm/s), average and maximum velocity, the number of episodes of motor activity and freezing. The same set of parameters, as well as the latent period and the time spent are recorded for the central sector. Defecation, rears (setting the animal on its hind legs) are evaluated visually. The test is designed to assess the level of motor and exploratory activity.

BALB/C mice [6] = test: Elevated Plus Maze test, mice; assay type: in vivo; conditions: for behavior in EPM: 1 mg/kg i.p.
Method: as §1
The test consists of two closed and two open arms located opposite each other (arm length 30 cm). The height of the sides of the closed arms is 15 cm. The entire installation is raised 70 cm above the floor. Open arms have a bright uniform illumination of 400 lux, closed −30-40 lux. The animal is placed in the center of the maze, with its head facing an open arm. Within five minutes, the Noldus EthoVision XT program (for behavior tracking) automatically records the following behavior parameters: total distance traveled (in cm), time spent moving (at a speed of more than five cm/s), time spent immobile (at a speed of less than 0.2 cm/s), average and maximum velocity, the number of episodes of mobility, and freezing. The same set of parameters, as well as the latent period and the time spent, are recorded for the central sector, the open and closed arms separately.

[7] = 10 mg/kg i.p., 30 minutes after injection

## NC(C(=O)O)c1cc(O)ccc1Cl (stereo not shown) [CHPG]
mGluR5 (GRM5)
  luciferase signal (mGluR5 activation): significant induction of luciferase signal

## COCCCC/C(=N\OCCN)c1ccc(C(F)(F)F)cc1 [FA, Fluvoxamine]
BALB/C mice [1]; 20 mg/kg i.p.
  time of active swimming: 103.5 ± 15.1 s
  time spent immobile: 229 ± 19.8 s

## CNC1(c2ccccc2Cl)CCCCC1=O (stereo not shown) [ketamine, reference compound]
Zebrafish (Danio rerio) [2]; 20 mg/kg i.p.
  distance travelled: tendency towards increased distance travelled
  latency to the top of the NT: did not alter
  time spent at the top of the tank: significant increase
  time spent in the middle+top of the aquarium: significant increase
  velocity: increased velocity
Zebrafish (Danio rerio) [3]; 20 mg/kg i.p.
  behavior in LDB test: only trends towards significant differences
Zebrafish (Danio rerio) [4]; 20 mg/kg i.p.
  overall behavioral effect in Danio rerio: anxiolytic-like responses

## AGAS: tetrapeptide AGAS, best combinatorial tetrapeptide according to the score values
Zebrafish (Danio rerio) [2]; 1 mg/kg i.p.
  behavior in NT test: didn't show any prominent effects
Zebrafish (Danio rerio) [2]; 5 mg/kg i.p.
  behavior in NT test: didn't show any prominent effects
Zebrafish (Danio rerio) [2]; 10 mg/kg i.p.
  velocity: greater velocity
Zebrafish (Danio rerio) [2]; 20 mg/kg i.p.
  time spent at the top of the tank: decreased time spent at the top of the aquarium
  velocity: trend towards significant reduction of velocity
Zebrafish (Danio rerio) [3]; 1 mg/kg i.p.
  behavior in LDB test: didn't show any prominent effects
Zebrafish (Danio rerio) [3]; 5 mg/kg i.p.
  behavior in LDB test: didn't show any prominent effects
Zebrafish (Danio rerio) [3]; 10 mg/kg i.p.
  latency to enter the light compartment: decreased latency to enter the light compartment
  number of transitions between compartments of LDB: increased number of transitions between compartments
Zebrafish (Danio rerio) [3]; 20 mg/kg i.p.
  behavior in LDB test: no differences between experimental and control groups
Zebrafish (Danio rerio) [4]; 1 mg/kg i.p.
  overall behavioral effect in Danio rerio: did not affect the behavior
Zebrafish (Danio rerio) [4]; 5 mg/kg i.p.
  overall behavioral effect in Danio rerio: did not affect the behavior
Zebrafish (Danio rerio) [4]; 10 mg/kg i.p.
  overall behavioral effect in Danio rerio: prominent anxiolytic-like activity
Zebrafish (Danio rerio) [4]; 20 mg/kg i.p.
  overall behavioral effect in Danio rerio: anxiogenic-like or sedative effect
BALB/C mice [5]; [7]
  number of center entries: 19.3±3
BALB/C mice [6]; 10 mg/kg i.p.
  freezing time: 38.7 ± 9.6 s
  number of rears on the closed arms: 10.2±2.9
BALB/C mice [6]; [7]
  distance travelled: 973±78.7 cm
BALB/C mice [1]; 10 mg/kg i.p.
  behavior in FST: did not affect the behavior

## AYFE: tetrapeptide chosen as a negative control [reference compound]
Zebrafish (Danio rerio) [2]; 1 mg/kg i.p.
  behavior in NT test: did not alter the behavior
Zebrafish (Danio rerio) [2]; 10 mg/kg i.p.
  distance travelled (locomotor activity): attenuation of locomotor activity
Zebrafish (Danio rerio) [3]; 1 mg/kg i.p.
  behavior in LDB test: did not alter the behavior
Zebrafish (Danio rerio) [3]; 10 mg/kg i.p.
  behavior in LDB test: did not differ from control values
Zebrafish (Danio rerio) [4]; 1 mg/kg i.p.
  overall behavioral effect in Danio rerio: did not show behavioral effects
Zebrafish (Danio rerio) [4]; 10 mg/kg i.p.
  overall behavioral effect in Danio rerio: produced sedation
BALB/C mice [5]; 1 mg/kg i.p., 30 minutes after injection
  time spent in the center: 59.96±22.4
BALB/C mice [6]
  behavior in EPM: didn't affect the behavior
BALB/C mice [1]; 1 mg/kg i.p.
  time spent active swimming: increased
  time spent immobile: decreased

## DSGH: combinatorial tetrapeptide with the best occurrence and the LOGO analysis
Zebrafish (Danio rerio) [2]; 0.5 mg/kg i.p.
  behavior in NT test: did not produced any behavioral effects
Zebrafish (Danio rerio) [2]; 10 mg/kg i.p.
  behavior in NT test: did not affect the behavioral parameters
Zebrafish (Danio rerio) [3]; 0.5 mg/kg i.p.
  number of transitions to light: decreased number of transitions to light
Zebrafish (Danio rerio) [3]; 0.5 mg/kg i.p., trend p<0.1
  time spent in the light compartment: decreased time spent in the light compartment
Zebrafish (Danio rerio) [3]; 1 mg/kg i.p.
  time spent in the light compartment: trend towards increased time spent in the light compartment
Zebrafish (Danio rerio) [3]; 1 mg/kg i.p., trend p<0.10
  latency to enter the light: decreased latency to enter the light
Zebrafish (Danio rerio) [3]; 10 mg/kg i.p.
  behavior in LDB test: did not affect the behavioral parameters
Zebrafish (Danio rerio) [4]; 0.5 mg/kg i.p.
  overall behavioral effect in Danio rerio: anxiogenic-like effect
Zebrafish (Danio rerio) [4]; 1 mg/kg i.p.
  overall behavioral effect in Danio rerio: potent anxiolytic-like effect
Zebrafish (Danio rerio) [4]; 10 mg/kg i.p.
  overall behavioral effect in Danio rerio: failed to produce any behavioral changes
BALB/C mice [5]; 1 mg/kg i.p.
  behavioral parameters in Open Field test: did not cause any changes of the behavioral parameters
BALB/C mice [6]
  behavior in EPM: did not cause any changes of the behavioral parameters
BALB/C mice [1]; 1 mg/kg i.p.
  behavioral parameters in FST: did not cause any changes of the behavioral parameters
